Source: article PMC5428509, “Irreversible inhibition of BTK kinase by a novel highly selective inhibitor CHMFL-BTK-11 suppresses inflammatory response in rheumatoid arthritis model” (Scientific Reports, 2017)

Tests used:
Assay in all cases: biochemical
Design in all cases: KinomeScan competition binding panel (DiscoveRx), percent of control at 1 uM
Conditions in all cases: read-out: Percent Control
PIP5K2C = target: T1, PIP5K2C (Homo sapiens, UniProt Q8TBX8)
T1 construct: gene PIP4K2C
Outline: (§1)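 KinomeScan technology used to profile binding across a panel of 456 kinases and mutants.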

FLT3(R834Q) = FLT3(R834Q) (Homo sapiens, UniProt P36888, R834Q)
Outline: as §1

RIOK2 = RIOK2 (Homo sapiens, UniProt Q9BVS4)
Outline: as §1

KIT(D816V) = KIT(D816V) (Homo sapiens, UniProt P10721, D816V)
Chain of KIT(D816V) (P10721 whole entry D816V): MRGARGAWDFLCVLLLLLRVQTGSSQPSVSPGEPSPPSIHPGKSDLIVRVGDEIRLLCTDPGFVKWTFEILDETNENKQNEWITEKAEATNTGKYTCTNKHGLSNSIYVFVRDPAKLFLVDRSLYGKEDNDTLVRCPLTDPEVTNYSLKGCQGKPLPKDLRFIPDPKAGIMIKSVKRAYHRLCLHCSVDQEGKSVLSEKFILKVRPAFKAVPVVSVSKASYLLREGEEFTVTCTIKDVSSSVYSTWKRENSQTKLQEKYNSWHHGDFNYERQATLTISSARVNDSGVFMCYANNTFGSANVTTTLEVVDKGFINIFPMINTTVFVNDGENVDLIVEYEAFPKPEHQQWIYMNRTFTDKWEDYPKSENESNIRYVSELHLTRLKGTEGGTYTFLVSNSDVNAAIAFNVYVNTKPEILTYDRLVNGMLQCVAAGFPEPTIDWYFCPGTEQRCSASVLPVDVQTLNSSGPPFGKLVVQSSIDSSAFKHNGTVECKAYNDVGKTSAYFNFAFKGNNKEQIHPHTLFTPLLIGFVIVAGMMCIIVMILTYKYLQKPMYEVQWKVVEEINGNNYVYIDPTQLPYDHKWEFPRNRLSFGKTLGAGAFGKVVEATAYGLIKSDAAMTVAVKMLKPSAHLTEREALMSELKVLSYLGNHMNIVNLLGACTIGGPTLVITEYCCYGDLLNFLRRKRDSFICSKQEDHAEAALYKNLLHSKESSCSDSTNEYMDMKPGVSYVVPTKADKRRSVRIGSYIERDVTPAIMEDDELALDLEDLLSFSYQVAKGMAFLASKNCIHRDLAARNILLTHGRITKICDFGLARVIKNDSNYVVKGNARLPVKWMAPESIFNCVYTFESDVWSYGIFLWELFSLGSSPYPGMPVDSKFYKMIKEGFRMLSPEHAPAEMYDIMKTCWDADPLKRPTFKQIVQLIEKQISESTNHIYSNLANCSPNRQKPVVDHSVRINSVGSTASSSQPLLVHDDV
Outline: as §1

SGK = target: T2, SGK (Homo sapiens, UniProt O00141)
T2 construct: gene SGK1
T2 sequence (O00141 whole entry): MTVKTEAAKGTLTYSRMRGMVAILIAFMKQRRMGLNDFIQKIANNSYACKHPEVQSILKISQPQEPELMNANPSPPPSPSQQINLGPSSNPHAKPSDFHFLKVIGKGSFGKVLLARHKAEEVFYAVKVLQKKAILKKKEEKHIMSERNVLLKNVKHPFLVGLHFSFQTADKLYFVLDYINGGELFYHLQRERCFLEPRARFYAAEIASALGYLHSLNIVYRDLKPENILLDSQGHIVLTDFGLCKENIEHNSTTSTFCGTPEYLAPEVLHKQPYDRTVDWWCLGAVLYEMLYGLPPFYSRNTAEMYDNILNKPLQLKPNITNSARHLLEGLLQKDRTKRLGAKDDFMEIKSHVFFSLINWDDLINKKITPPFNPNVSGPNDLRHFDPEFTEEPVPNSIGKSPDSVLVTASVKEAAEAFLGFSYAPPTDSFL
Outline: as §1

[1] = target: T3, RSK4(Kin.Dom.1-N-terminal) (Homo sapiens, UniProt Q9UK32)
T3 construct: gene RPS6KA6; Kin.Dom.1-N-terminal
Outline: as §1

MEK6 = target: T4, MEK6 (Homo sapiens, UniProt P52564)
T4 construct: gene MAP2K6
Outline: as §1

EPHA8 = EPHA8 (Homo sapiens, UniProt P29322)
Outline: as §1

LKB1 = target: T5, LKB1 (Homo sapiens, UniProt Q15831)
T5 construct: gene STK11
Outline: as §1

MAP3K4 = MAP3K4 (Homo sapiens, UniProt Q9Y6R4)
Chain of MAP3K4 (Q9Y6R4 whole entry): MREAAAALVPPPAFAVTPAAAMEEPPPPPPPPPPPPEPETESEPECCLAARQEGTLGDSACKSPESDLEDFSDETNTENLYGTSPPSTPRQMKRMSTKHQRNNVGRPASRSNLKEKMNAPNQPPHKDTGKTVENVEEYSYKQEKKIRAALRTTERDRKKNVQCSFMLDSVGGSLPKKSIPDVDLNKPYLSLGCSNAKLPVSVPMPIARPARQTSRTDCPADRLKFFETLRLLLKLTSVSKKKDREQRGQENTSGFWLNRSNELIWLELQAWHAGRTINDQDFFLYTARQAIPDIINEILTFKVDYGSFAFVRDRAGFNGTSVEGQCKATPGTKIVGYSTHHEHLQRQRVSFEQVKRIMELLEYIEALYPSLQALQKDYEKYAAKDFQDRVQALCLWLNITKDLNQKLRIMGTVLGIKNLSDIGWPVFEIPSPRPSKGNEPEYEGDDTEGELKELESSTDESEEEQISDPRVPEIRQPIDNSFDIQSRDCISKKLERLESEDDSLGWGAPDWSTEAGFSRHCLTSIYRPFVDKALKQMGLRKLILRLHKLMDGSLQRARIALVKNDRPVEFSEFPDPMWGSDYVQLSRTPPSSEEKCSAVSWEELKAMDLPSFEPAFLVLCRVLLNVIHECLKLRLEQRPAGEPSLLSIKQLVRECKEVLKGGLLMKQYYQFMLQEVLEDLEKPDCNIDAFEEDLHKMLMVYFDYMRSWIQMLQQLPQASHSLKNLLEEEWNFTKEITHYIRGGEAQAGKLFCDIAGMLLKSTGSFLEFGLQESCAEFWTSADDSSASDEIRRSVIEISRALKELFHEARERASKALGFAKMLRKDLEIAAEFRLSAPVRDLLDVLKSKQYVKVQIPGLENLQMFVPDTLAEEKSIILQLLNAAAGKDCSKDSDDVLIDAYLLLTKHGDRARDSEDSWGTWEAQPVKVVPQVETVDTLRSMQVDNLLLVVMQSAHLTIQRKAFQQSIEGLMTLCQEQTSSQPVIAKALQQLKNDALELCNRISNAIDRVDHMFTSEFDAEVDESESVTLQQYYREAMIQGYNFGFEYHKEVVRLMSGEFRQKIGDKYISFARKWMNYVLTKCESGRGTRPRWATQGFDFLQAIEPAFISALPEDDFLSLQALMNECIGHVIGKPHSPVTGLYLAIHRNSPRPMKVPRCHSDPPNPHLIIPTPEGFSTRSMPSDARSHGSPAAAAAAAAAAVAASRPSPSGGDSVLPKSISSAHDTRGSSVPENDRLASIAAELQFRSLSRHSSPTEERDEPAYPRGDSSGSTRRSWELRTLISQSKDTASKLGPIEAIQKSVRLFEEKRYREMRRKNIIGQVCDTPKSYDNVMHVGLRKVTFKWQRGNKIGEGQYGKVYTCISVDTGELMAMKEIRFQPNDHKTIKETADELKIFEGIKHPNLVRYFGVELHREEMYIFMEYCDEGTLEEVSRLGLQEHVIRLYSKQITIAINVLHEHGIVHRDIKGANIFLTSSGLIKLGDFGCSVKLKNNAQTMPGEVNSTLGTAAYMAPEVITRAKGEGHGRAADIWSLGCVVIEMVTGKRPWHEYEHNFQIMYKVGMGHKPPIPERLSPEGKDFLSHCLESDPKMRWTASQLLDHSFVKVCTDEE
Outline: as §1

IKK-epsilon = target: T6, IKK-epsilon (Homo sapiens, UniProt Q14164)
T6 construct: gene IKBKE
T6 sequence (Q14164 whole entry): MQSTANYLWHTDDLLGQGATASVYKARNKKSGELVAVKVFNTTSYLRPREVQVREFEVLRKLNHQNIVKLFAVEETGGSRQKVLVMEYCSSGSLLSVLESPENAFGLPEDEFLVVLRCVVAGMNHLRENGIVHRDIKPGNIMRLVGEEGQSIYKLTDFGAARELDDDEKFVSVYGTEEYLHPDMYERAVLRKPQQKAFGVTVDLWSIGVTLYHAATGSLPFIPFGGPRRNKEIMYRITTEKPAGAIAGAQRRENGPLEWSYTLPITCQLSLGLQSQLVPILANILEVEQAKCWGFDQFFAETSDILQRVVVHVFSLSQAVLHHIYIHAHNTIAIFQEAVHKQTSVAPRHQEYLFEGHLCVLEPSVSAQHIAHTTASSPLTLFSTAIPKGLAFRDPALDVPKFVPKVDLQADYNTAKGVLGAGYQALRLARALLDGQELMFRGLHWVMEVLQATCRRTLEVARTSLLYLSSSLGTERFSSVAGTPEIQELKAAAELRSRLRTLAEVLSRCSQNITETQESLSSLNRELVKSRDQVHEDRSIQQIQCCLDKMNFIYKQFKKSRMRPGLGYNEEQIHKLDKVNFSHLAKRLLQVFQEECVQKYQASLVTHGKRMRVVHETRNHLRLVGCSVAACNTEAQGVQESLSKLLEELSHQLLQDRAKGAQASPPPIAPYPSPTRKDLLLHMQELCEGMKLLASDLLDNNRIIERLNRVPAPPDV
Outline: as §1

CAMK1G = CAMK1G (Homo sapiens, UniProt Q96NX5)
Chain of CAMK1G (Q96NX5 whole entry): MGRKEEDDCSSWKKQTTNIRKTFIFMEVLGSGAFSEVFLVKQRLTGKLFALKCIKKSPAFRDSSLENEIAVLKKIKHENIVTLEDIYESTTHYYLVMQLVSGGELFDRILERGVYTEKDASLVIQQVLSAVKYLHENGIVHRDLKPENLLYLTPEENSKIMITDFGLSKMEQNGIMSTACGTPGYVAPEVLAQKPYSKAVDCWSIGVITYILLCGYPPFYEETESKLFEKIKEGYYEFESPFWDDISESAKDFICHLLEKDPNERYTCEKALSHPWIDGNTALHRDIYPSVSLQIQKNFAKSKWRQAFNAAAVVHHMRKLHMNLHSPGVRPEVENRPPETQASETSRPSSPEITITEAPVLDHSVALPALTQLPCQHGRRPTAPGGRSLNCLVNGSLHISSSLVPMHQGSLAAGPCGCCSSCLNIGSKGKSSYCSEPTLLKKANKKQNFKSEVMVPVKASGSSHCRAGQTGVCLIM
Outline: as §1

CASK = CASK (Homo sapiens, UniProt O14936)
Outline: as §1

FGR = FGR (Homo sapiens, UniProt P09769)
Outline: as §1

CSNK1G1 = CSNK1G1 (Homo sapiens, UniProt Q9HCP0)
Outline: as §1

LTK = LTK (Homo sapiens, UniProt P29376)
Outline: as §1

PRKCE = PRKCE (Homo sapiens, UniProt Q02156)
Outline: as §1

LIMK1 = LIMK1 (Homo sapiens, UniProt P53667)
Outline: as §1

CDK7 = CDK7 (Homo sapiens, UniProt P50613)
Outline: as §1

PCTK2 = target: T7, PCTK2 (Homo sapiens, UniProt Q00537)
T7 construct: gene CDK17
Outline: as §1

SRPK2 = SRPK2 (Homo sapiens, UniProt P78362)
Outline: as §1

PIM1 = PIM1 (Homo sapiens, UniProt P11309)
Chain of PIM1 (P11309 whole entry): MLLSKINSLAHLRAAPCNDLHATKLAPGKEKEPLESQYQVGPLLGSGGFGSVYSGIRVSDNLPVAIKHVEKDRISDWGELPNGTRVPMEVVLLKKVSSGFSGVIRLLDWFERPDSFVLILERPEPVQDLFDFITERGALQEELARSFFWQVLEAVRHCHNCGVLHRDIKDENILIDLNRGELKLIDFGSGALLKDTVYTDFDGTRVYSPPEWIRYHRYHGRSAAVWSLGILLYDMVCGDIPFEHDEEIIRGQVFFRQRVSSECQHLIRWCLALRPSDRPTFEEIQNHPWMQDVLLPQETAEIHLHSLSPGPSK
Outline: as §1

AKT3 = AKT3 (Homo sapiens, UniProt Q9Y243)
Chain of AKT3 (Q9Y243 whole entry): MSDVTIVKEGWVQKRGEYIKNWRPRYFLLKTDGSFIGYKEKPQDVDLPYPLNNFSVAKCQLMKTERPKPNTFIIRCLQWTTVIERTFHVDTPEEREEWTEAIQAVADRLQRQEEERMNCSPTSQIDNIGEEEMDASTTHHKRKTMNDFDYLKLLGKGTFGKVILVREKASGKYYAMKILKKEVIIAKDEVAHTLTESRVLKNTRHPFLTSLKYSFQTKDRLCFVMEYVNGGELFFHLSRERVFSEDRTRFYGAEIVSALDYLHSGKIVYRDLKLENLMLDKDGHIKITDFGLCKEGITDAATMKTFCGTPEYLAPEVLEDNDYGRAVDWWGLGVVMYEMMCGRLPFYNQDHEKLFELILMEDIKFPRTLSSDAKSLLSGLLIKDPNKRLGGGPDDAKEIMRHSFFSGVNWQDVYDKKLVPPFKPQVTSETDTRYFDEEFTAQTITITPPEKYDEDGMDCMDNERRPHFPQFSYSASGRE
Outline: as §1

SRPK3 = SRPK3 (Homo sapiens, UniProt Q9UPE1)
Outline: as §1

MELK = MELK (Homo sapiens, UniProt Q14680)
Outline: as §1

C=CC(=O)Nc1cc(-n2c(=O)ccc3cnc4ccc(-n5cccn5)cc4c32)ccc1C [CHMFL-BTK-11]
remaining binding at 1 µM (PIP5K2C): 90% | remaining binding at 1 µM (FLT3(R834Q)): 99% | remaining binding at 1 µM (RIOK2): 87% | remaining binding at 1 µM (KIT(D816V)): 97% | remaining binding at 1 µM (SGK): 65% | remaining binding at 1 µM [1]: 91% | remaining binding at 1 µM (MEK6): 79% | remaining binding at 1 µM (EPHA8): 92% | remaining binding at 1 µM (LKB1): 91% | remaining binding at 1 µM (MAP3K4): 97% | remaining binding at 1 µM (IKK-epsilon): 96% | remaining binding at 1 µM (CAMK1G): 84% | remaining binding at 1 µM (CASK): 86% | remaining binding at 1 µM (FGR): 100% | remaining binding at 1 µM (CSNK1G1): 100% | remaining binding at 1 µM (LTK): 100% | remaining binding at 1 µM (PRKCE): 97% | remaining binding at 1 µM (LIMK1): 100% | remaining binding at 1 µM (CDK7): 89% | remaining binding at 1 µM (PCTK2): 94% | remaining binding at 1 µM (SRPK2): 100% | remaining binding at 1 µM (PIM1): 82% | remaining binding at 1 µM (AKT3): 100% | remaining binding at 1 µM (SRPK3): 96% | remaining binding at 1 µM (MELK): 73%
